Measured values reported in patent US8629168B2, “Benzoxazoles and oxazolopyridines being useful as janus kinases inhibitors” (priority 2006, dated 2014).

Target: T1, GST-JAK2(808-1132) (Homo sapiens, UniProt O60674)
T1 construct: GST-JAK2(808-1132) is purchased from Invitrogen; purchased Invitrogen (Carlsbad, USA) #4288
Test: EPK JAK/TYK-kinase family profiling assay (Caliper mobility shift), JAK2
Assay type: biochemical
Conditions: Caliper mobility shift assay of Example 187, 20 μM ATP, read-out: IC50 with Test in present Example
Description: All four kinases of the JAK/TYK-kinase family are used as purified recombinant GST-fusion proteins, containing the active kinase domains. GST-JAK1(866-1154), GST-JAK3(811-1124), and GST-TYK2(888-1187) are expressed and purified by affinity chromatography. GST-JAK2(808-1132) is purchased from Invitrogen (Carlsbad, USA, #4288).
The kinase assays are based on the Caliper mobility shift assay using the LabChip 3000 systems. This technology is similar to capillary electrophoresis and uses charge driven separation of substrate and product in a microfluidic chip.
All kinase reactions are performed in 384 well microtiter plates in a total reaction volume of 18 μl. The assay plates are prepared with 0.1 μl per well of test compound in the appropriate test concentration, as described under the section “preparation of compound dilutions”. The reactions are started by combining 9 μl of substrate mix (consisting of peptide and ATP) with 9 μl of kinase dilution. The reactions are incubated for 60 minutes at 30° C. and stopped by adding 70 μl of stop buffer (100 mM Hepes, 5% DMSO, 0.1% Coating reagent, 10 mM EDTA, 0.015% Brij 35).
Fluorescently labeled synthetic peptides are used as substrates in all reactions. […] Specific assay conditions are described in Table 1:
The terminated reactions are transferred to a Caliper LabChip 3000 reader (Caliper Life Sciences, Mountain View, Calif., USA) and the turnover of each reaction is measured by determining the substrate/product ratio.
Test compounds are dissolved in DMSO (10 mM) and transferred into 1.4 mL flat bottom or V-shaped Matrix tubes carrying a unique 2D matrix chip by individual compound hubs. The numbers of these chips are distinctively linked to the individual compound identification numbers. The stock solutions are stored at −20° C. if not used immediately. For the test procedure the vials are defrosted and identified by a scanner whereby a working sheet is generated that guides the subsequent working steps.
Compound dilutions are made in 96 well plates. This format enabled the assay of maximally 40 individual test compounds at 8 concentrations (single points) including 4 reference compounds. The dilution protocol includes the production of pre-dilution plates, master plates and assay plates:
Pre-dilution plates: 96 polypropylene well plates are used as pre-dilution plates. A total of 4 pre-dilution plates are prepared including 10 test compounds each on the plate positions A1-A10, one standard compound at A11 and one DMSO control at A12. All dilution steps are done on a Hamilton STAR robot (Hamilton, Co., Reno, Nev., USA).
Master plates: 100 μL of individual compound dilutions including standard compound and controls of the 4 “pre-dilution plates” are transferred into a 384 “master plate” including the following concentrations 1,820, […], 182, 54.6, 18.2, 5.46, 1.82 and 0.546 μM, respectively in 90% of DMSO.
Assay plates: Identical assay plates are then prepared by pipetting 100 nL each of compound dilutions of the master plates into 384-well “assay plates”. In the following the compounds are mixed with 9 μL of assays components plus 9 μL enzyme corresponding to a 1:181 dilution steps enabling the final concentration of 10, 3.0, 1.0, 0.3, 0.1, 0.03, 0.01 and 0.003 μM, respectively. The preparation of the master plates are handled by the Matrix PlateMate Plus robot (Thermo Fisher Scientific, Handforth, Cheshire, United Kingdom) and replication of assay plates by the HummingBird robot (Genomic Solutions, Inc., Ann Arbor, Mich., USA).

T1 sequence (O60674 808-1132): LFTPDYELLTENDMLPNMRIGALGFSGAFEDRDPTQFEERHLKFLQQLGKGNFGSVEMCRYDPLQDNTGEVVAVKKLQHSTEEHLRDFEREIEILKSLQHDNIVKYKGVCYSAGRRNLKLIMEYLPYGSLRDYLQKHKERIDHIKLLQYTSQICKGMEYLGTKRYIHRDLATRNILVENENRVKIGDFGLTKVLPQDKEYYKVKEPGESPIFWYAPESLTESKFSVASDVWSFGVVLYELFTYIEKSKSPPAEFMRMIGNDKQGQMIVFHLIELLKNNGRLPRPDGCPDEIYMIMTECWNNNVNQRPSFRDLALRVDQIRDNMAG

SMILES	IC50
Cc1cc(Nc2nc3cccc(-c4cc(F)c(CN5CCS(=O)(=O)CC5)c(F)c4)c3o2)ccc1C(=O)N(C)C [Example 65, 4-{7-[4-(1,1-Dioxo-thiomorpholin-4-ylmethyl)-3,5-difluoro-phenyl]-benzooxazol-2-ylamino}-2,N,N-trimethyl-benzamide]	8.25 nM
COCCN1CCN(c2ccc(Nc3nc4cccc(-c5ccc(C(=O)N6CCOCC6)c(C)c5)c4o3)cc2C)CC1 [Example 66, [4-(2-{4-[4-(2-Methoxy-ethyl)-piperazin-1-yl]-3-methyl-phenylamino}-benzooxazol-7-yl)-2-methyl-phenyl]-morpholin-4-yl-methanone]	6.45 nM
Cc1cc(Nc2nc3cccc(-c4ccc(CN5CCOCC5)c(F)c4)c3o2)ccc1C(=O)N1CCCC1 [Example 67, {4-[7-(3-Fluoro-4-morpholin-4-ylmethyl-phenyl)-benzooxazol-2-ylamino]-2-methyl-phenyl}-pyrrolidin-1-yl-methanone]	14 nM
CN(C)C(=O)c1ccc(Nc2nc3cccc(-c4ccc(CS(C)(=O)=O)cc4)c3o2)cc1 [Example 71, 4-[7-(4-Methanesulfonylmethyl-phenyl)-benzooxazol-2-ylamino]-N,N-dimethyl-benzamide]	15 nM
CN1CCN(c2ccc(Nc3nc4cccc(-c5ccc(C(=O)N6CCOCC6)c(F)c5)c4o3)cc2)CC1 [Example 75, (2-Fluoro-4-{2-[4-(4-methyl-piperazin-1-yl)-phenylamino]-benzooxazol-7-yl}-phenyl)-morpholin-4-yl-methanone]	6.5 nM
CN1CCN(c2ccc(Nc3nc4cccc(-c5ccc(C(=O)N6CCS(=O)(=O)CC6)c(F)c5)c4o3)cc2)CC1 [Example 80, (1,1-Dioxo-1lambda*6*-thiomorpholin-4-yl)-(2-fluoro-4-{2-[4-(4-methyl-piperazin-1-yl)-phenylamino]-benzooxazol-7-yl}-phenyl)-methanone]	6.2 nM
Cc1cc(-c2cccc3nc(Nc4ccc(N5CCN(C)CC5)cc4)oc23)ccc1C(=O)N1CCOCC1 [Example 82, (2-Methyl-4-{2-[4-(4-methyl-piperazin-1-yl)-phenylamino]-benzooxazol-7-yl}-phenyl)-morpholin-4-yl-methanone]	4.8 nM
Cc1cc(Nc2nc3cccc(-c4ccc(CN5CCS(=O)(=O)CC5)c(F)c4)c3o2)ccc1C(=O)N(C)C [Example 84, 4-{7-[4-(1,1-Dioxo-1lambda*6*-thiomorpholin-4-ylmethyl)-3-fluoro-phenyl]-benzooxazol-2-ylamino}-2,N,N-trimethyl-benzamide]	< 3 nM
CCN1CCN(c2ccc(Nc3nc4cccc(-c5ccc(CN6CCOCC6)c(F)c5)c4o3)cc2C)CC1 [Example 87, [4-(4-Ethyl-piperazin-1-yl)-3-methyl-phenyl]-[7-(3-fluoro-4-morpholin-4-ylmethyl-phenyl)-benzooxazol-2-yl]-amine]	4.8 nM
CCN1CCN(c2ccc(Nc3nc4cccc(-c5ccc(CN6CCS(=O)(=O)CC6)c(F)c5)c4o3)cc2C)CC1 [Example 88, {7-[4-(1,1-Dioxo-1lambda*6*-thiomorpholin-4-ylmethyl)-3-fluoro-phenyl]-benzooxazol-2-yl}-[4-(4-ethyl-piperazin-1-yl)-3-methyl-phenyl]-amine]	< 3 nM

Further lines, results first:

IC50	SMILES
4.2 nM	Cc1cc(Nc2nc3cccc(-c4ccc(CN5CCOCC5)c(F)c4)c3o2)ccc1C(=O)N(C)C [Example 64, 4-[7-(3-Fluoro-4-morpholin-4-ylmethyl-phenyl)-benzooxazol-2-ylamino]-2,N,N-trimethyl-benzamide]
19 nM	Cc1cc(Nc2nc3cccc(-c4cc(F)c(CN5CCOCC5)c(F)c4)c3o2)ccc1C(=O)N(C)C [Example 68, 4-[7-(3,5-Difluoro-4-morpholin-4-ylmethyl-phenyl)-benzooxazol-2-ylamino]-2,N,N-trimethyl-benzamide]
7.9 nM	Cc1cc(Nc2nc3cccc(-c4ccc(C(=O)N5CCOCC5)cc4)c3o2)ccc1C(=O)N(C)C [Example 69, 2,N,N-Trimethyl-4-{7-[4-(morpholine-4-carbonyl)-phenyl]-benzooxazol-2-ylamino}-benzamide]
6.2 nM	Cc1cc(Nc2nc3cccc(-c4ccc(CC(=O)N5CCOCC5)cc4)c3o2)ccc1C(=O)N(C)C [Example 70, 2,N,N-Trimethyl-4-{7-[4-(2-morpholin-4-yl-2-oxo-ethyl)-phenyl]-benzooxazol-2-ylamino}-benzamide]
17 nM	Cc1cc(Nc2nc3cccc(-c4ccc(CC(=O)N5CCOCC5)cc4)c3o2)ccc1C(=O)N1CCN(C)CC1 [Example 72, 2-(4-{2-[3-Methyl-4-(4-methyl-piperazine-1-carbonyl)-phenylamino]-benzooxazol-7-yl}-phenyl)-1-morpholin-4-yl-ethanone]
5.15 nM	Cc1cc(Nc2nc3cccc(-c4ccc(CC(=O)N5CCOCC5)c(F)c4)c3o2)ccc1C(=O)N1CCN(C)CC1 [Example 73, 2-(2-Fluoro-4-{2-[3-methyl-4-(4-methyl-piperazine-1-carbonyl)-phenylamino]-benzooxazol-7-yl}-phenyl)-1-morpholin-4-yl-ethanone]
5 nM	CN1CCN(c2ccc(Nc3nc4cccc(-c5ccc(CC(=O)N6CCOCC6)cc5)c4o3)cc2)CC1 [Example 74, 2-(4-{2-[4-(4-Methyl-piperazin-1-yl)-phenylamino]-benzooxazol-7-yl}-phenyl)-1-morpholin-4-yl-ethanone]
13 nM	Cc1cc(Nc2nc3cccc(-c4ccc(C(=O)N5CCOCC5)cc4F)c3o2)ccc1C(=O)N(C)C [Example 76, 4-{7-[2-Fluoro-4-(morpholine-4-carbonyl)-phenyl]-benzooxazol-2-ylamino}-2,N,N-trimethyl-benzamide]
3.3 nM	Cc1cc(Nc2nc3cccc(-c4ccc(CC(=O)N5CCS(=O)(=O)CC5)cc4)c3o2)ccc1C(=O)N(C)C [Example 77, 4-(7-{4-[2-(1,1-Dioxo-1lambda*6*-thiomorpholin-4-yl)-2-oxo-ethyl]-phenyl}-benzooxazol-2-ylamino)-2, N,N-trimethyl-benzamide]
4.5 nM	Cc1cc(Nc2nc3cccc(-c4ccc(C(=O)N5CCOCC5)c(F)c4)c3o2)ccc1C(=O)N(C)C [Example 78, 4-{7-[3-Fluoro-4-(morpholine-4-carbonyl)-phenyl]-benzooxazol-2-ylamino}-2, N,N-trimethyl-benzamide]
< 3 nM	Cc1cc(Nc2nc3cccc(-c4ccc(CN5CCS(=O)(=O)CC5)cc4)c3o2)ccc1C(=O)N(C)C [Example 79, 4-{7-[4-(1,1-Dioxo-1lambda*6*-thiomorpholin-4-ylmethyl)-phenyl]-benzooxazol-2-ylamino}-2,N,N-trimethyl-benzamide]
17 nM	Cc1cc(Nc2nc3cccc(-c4ccc(C[S+](C)[O-])cc4)c3o2)ccc1C(=O)N(C)C (stereo not shown) [Example 81, 4-[7-(4-Methanesulfinylmethyl-phenyl)-benzooxazol-2-ylamino]-2,N,N-trimethyl-benzamide]
< 3 nM	Cc1cc(Nc2nc3cccc(-c4ccc(CC(=O)N5CCS(=O)(=O)CC5)c(F)c4)c3o2)ccc1C(=O)N(C)C [Example 83, 4-(7-{4-[2-(1,1-Dioxo-1lambda*6*-thiomorpholin-4-yl)-2-oxo-ethyl]-3-fluoro-phenyl}-benzooxazol-2-ylamino)-2,N,N-trimethyl-benzamide]
9.3 nM	Cc1cc(Nc2nc3cccc(-c4ccc(C(=O)N5CCOCC5)c(C)c4)c3o2)ccc1C(=O)N(C)C [Example 85, 2,N,N-Trimethyl-4-{7-[3-methyl-4-(morpholine-4-carbonyl)-phenyl]-benzooxazol-2-ylamino}-benzamide]
79 nM	Cc1cc(Nc2nc3cccc(-c4ccc(CN5CCOCC5)c(C(F)(F)F)c4)c3o2)ccc1C(=O)N(C)C [Example 86, 2,N,N-Trimethyl-4-[7-(4-morpholin-4-ylmethyl-3-trifluoromethyl-phenyl)-benzooxazol-2-ylamino]-benzamide]
